From US20100099614A1, “Antimicrobial Peptides and Methods of Use” (priority 2008, published 2010)
Where two headings read alike, the source gives them in different places.

Legend:
[1] = system: Mycobacterium tuberculosis strain H37Rv
[2] = system: Ascomycota fungi
[3] = system: Rhizopus microsporus (clinical isolate)
[4] = system: Rhizopus oryzae (AZN 8892)
[5] = system: Aspergillus nidulans (AZN 2867); assay: Antifungal activity (MIC50/MIC90); assay type: cell-based
From the text: The filamentous fungal and yeast strains used in this study were either purchased from American Type Culture Collection, Manassas, Va. (ATCC) or were generous gifts from various institutions: Aspergillus nidulans (AZN 2867), Absidia corymbifera (clinical isolate), Rhizomucor spp. (clinical isolate), Rhizopus microsporus (clinical isolate), Rhizopus oryzae (AZN 8892), Scedosporium prolificans (clinical isolate), Candida albicans (ATCC 24433).
Fungal spores (final concentration 10^4 spores/ml) were suspended in ½ Potato Dextrose Broth (Difco), and the yeast strains were suspended at a starting A600=0.001 in the yeast complete medium YPG (1% yeast extract, 1% peptone, 2% glucose). The medium was supplemented with tetracycline (10 μg/ml) and cefotaxim (100 μg/ml), and dispensed by aliquots of 80 μl into wells of a microplate containing 20 μl of either water or the sample to be analyzed. Growth of fungi and yeasts was evaluated after 24 h at 30° C. by light microscopy and after 48 h by measuring the culture absorbance at 595 nm using a microplate reader. Under conditions where the antifungal assay was performed in the presence of salt, the ½ Potato Dextrose Broth medium was prepared in phosphate-buffered saline, 137 mM NaCl.
The procedure used for the determination of the minimal inhibitory concentration (MIC) was identical to that for the antifungal assay. The MIC values are expressed as the lowest peptide concentration that causes 90% or 50% growth inhibition. The fungicidal effects of the synthetic peptides in the MIC assay were verified by reinoculation of the yeasts in potato dextrose broth at the end of the incubation time.

[6] = system: Absidia corymbifera (clinical isolate); settings: mean of 2 sets

## CC[C@@H](C)[C@@H](NC(=O)[C@@H](C)NC(=O)[C@@H](CCCCN)NC(=O)[C@@H](CC(C)C)NC(=O)[C@@H](C)NC(=O)[C@H](NC(=O)[C@@H](Cc1c[nH]cn1)NC(=O)[C@@H](CC(C)C)NC(=O)[C@H](NC(=O)[C@H](NC(=O)[C@@H](CCCCN)NC(=O)[C@@H](CCCCN)NC(=O)[C@@H](C)NC(=O)[C@@H](CO)NC(=O)[C@@H](CCCCN)NC(=O)[C@@H](Cc1ccccc1)NC(=O)[C@H](NC(=O)[C@@H](CCCCN)NC(=O)[C@@H](CC(C)C)NC(=O)[C@@H](Cc1ccccc1)NC(=O)[C@@H](CO)NC(=O)[C@@H](CCCCN)NC(=O)[C@@H](Cc1c[nH]c2ccccc12)NC(=O)[C@@H](CCCCN)NC(C)=O)[C@H](C)O)[C@H](C)O)C(C)C)[C@H](C)O)C(=O)N[C@H](CO)C(=O)N[C@H](CO)C(N)=O [D1]
[1]
  Anti-tuberculosis activity MIC: 70.7 ± 14.8 µg/mL
  Anti-tuberculosis activity to H37Rv strain Fold (compared to D4): 2.3 fold
[1]; H37Rv
  Anti-tuberculosis activity MIC: 23.6 ± 5.0 µM
  Anti-tuberculosis activity to H37Rv strain MIC: 23.6 µM
[1]; further experiments, […]
  Anti-tuberculosis activity to H37Rv strain MIC: 70.7 µg/mL
[2]; Ascomycota fungi
  fold less active than D4: 5 fold
[2]; relative to D4
  Fold improvement in antifungal activity (geometric mean data) compared to that of D4, Ascomycota fungi: 0.2 fold
[2]; three Ascomycota strains
  GM (geometric mean of the MIC50 values), Ascomycota fungi: 28.6 µg/mL
[3]; inhibits 50% of fungal growth
  R. micosporus MIC50: 6.3 µg/mL
[3]; inhibits 90% of fungal growth
  R. micosporus MIC90: 12.5 µg/mL
[4]; inhibits 50% of fungal growth
  R. oryzae MIC50: 18.8 µg/mL
[4]; inhibits 90% of fungal growth
  R. oryzae MIC90: 25.0 µg/mL
[5]; inhibits 50% of fungal growth
  A. nidulans MIC50: 9.4 µg/mL
[5]; inhibits 90% of fungal growth
  A. nidulans MIC90: 50.0 µg/mL
[6]; peptide concentration that inhibits 50% of fungal growth
  A. corymbifera MIC50: 12.5 µg/mL
[6]; peptide concentration that inhibits 90% of fungal growth
  A. corymbifera MIC90: 12.5 µg/mL
